Test results as given in patent US10633419B2, “Immunomodulators” (BRISTOL-MYERS SQUIBB COMPANY, priority 2014, dated 2020).
pIC50: −log10 of the molar value. Positions of bridges follow the written chain, without caps; N, C: chain ends. Non-standard residues stand in square brackets, D forms with d. Residues, ends and D or L forms follow the SMILES beside them. *: point of attachment. X6 = O=C(O)CCCCCCCCCCCCCCCCC(=O)N[C@@H](CCC(=O)NCCCOCCOCCOCCCN*)C(=O)O; X4 = O=C(O)CCCCCCCCCCCCCCCCC(=O)N[C@@H](CC(=O)NCCCOCCOCCOCCCN*)C(=O)O; X11 = O=C(O)CCCCCCCCCCCCC(=O)N[C@@H](CCC(=O)NCCCOCCOCCOCCCN*)C(=O)O; Trp(1-CH2COOH) = N[C@@H](Cc1cn(CC(=O)O)c2ccccc12)C(=O)O; X9 = O=C(O)CCCCCCCCCCCCCCCCC(=O)N[C@@H](CCN*)C(=O)O; Phe(3,4,5-F3) = N[C@@H](Cc1cc(F)c(F)c(F)c1)C(=O)O; Phe(4-F) = N[C@@H](Cc1ccc(F)cc1)C(=O)O; d(cisHyp) = O=C(O)[C@H]1C[C@@H](O)CN1; Hyp = O=C(O)[C@@H]1C[C@@H](O)CN1; NHhexadecyl = CCCCCCCCCCCCCCCCN*; NMeF = CN[C@@H](Cc1ccccc1)C(=O)O; dHyp = O=C(O)[C@H]1C[C@H](O)CN1; NMeNle = CCCC[C@H](NC)C(=O)O; Pip = O=C(O)[C@@H]1CCCCN1; dPip = O=C(O)[C@H]1CCCCN1; NMeA = CN[C@@H](C)C(=O)O; Aun = NCCCCCCCCCCC(=O)O; Dab = NCC[C@H](N)C(=O)O; Dap = NC[C@H](N)C(=O)O

These compounds were tested against T1, PD-L1 (Homo sapiens, UniProt Q9NZQ7) (assay: PD-1/PD-L1 Homogenous Time-Resolved Fluorescence (HTRF) binding assay (PD-1-Ig/PD-L1-His)). Details: inhibition of PD-1-Ig binding to PD-L1-TVMV-His; value given as number; read-out: HTRF IC50.
T1 construct: hPDL1(19-239)-TVMV-His; made in house; host or cells: HEK293T
Method in brief: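 HTRF competition in dPBS with 0.1% BSA and 0.05% Tween-20: 20 nM PD-1-Ig added after 15 min compound pre-incubation with 10 nM PD-L1-His, then another 15 min. Signal (665/620 nm) after 30 min with APC anti-His (20 nM) and Eu anti-Ig (1 nM).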

T1 sequence (Q9NZQ7 with tags, fused parts or gaps): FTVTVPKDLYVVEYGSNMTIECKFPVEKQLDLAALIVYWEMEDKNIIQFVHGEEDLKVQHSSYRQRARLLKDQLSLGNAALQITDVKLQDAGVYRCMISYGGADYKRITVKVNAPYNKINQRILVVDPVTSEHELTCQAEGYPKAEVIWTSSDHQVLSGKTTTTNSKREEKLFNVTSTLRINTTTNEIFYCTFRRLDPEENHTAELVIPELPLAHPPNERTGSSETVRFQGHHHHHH

| pIC50 | Compound |
| --- | --- |
| 8.48 | CCCC[C@H]1C(=O)N(C)[C@@H](CCCC)C(=O)N[C@@H](CC(C)C)C(=O)N[C@H](C(=O)NCC(=O)N[C@@H](Cc2cn(CC[C@H](NC(=O)CCCCCCCCCCCCCCCCC(=O)O)C(=O)O)nn2)C(=O)O)CSCC(=O)N[C@@H](Cc2ccc(O)cc2)C(=O)N2CCCC[C@H]2C(=O)N[C@@H](CC(N)=O)C(=O)N2CCC[C@H]2C(=O)N[C@@H](CN)C(=O)N[C@@H](CC(C)C)C(=O)N2C[C@H](O)C[C@H]2C(=O)N[C@@H](Cc2c[nH]c3ccccc23)C(=O)N[C@@H](CCN)C(=O)N[C@@H](Cc2cn(CC(=O)O)c3ccccc23)C(=O)N1C [Example 13132] |

Same assay, conditions: inhibition of PD-1-Ig binding to PD-L1-TVMV-His; value given as range class; read-out: HTRF IC50

| Compound | pIC50 |
| --- | --- |
| CCCCCCCCCCCCCCCCNC(=O)CNC(=O)CNC(=O)CNC(=O)CNC(=O)[C@@H]1CSCC(=O)N[C@@H](Cc2ccc(O)cc2)C(=O)N(C)[C@@H](C)C(=O)N[C@@H](CC(N)=O)C(=O)N2CCC[C@H]2C(=O)N[C@@H](CN)C(=O)N[C@@H](CC(C)C)C(=O)N2C[C@H](O)C[C@H]2C(=O)N[C@@H](Cc2c[nH]c3ccccc23)C(=O)N[C@@H](CO)C(=O)N[C@@H](Cc2c[nH]c3ccccc23)C(=O)N(C)[C@@H](CCCC)C(=O)N(C)[C@@H](CCCC)C(=O)N[C@@H](CCCNC(=N)N)C(=O)N1 [Example 11108] ({CH2CO}-Y[NMeA]NP[Dap]L[Hyp]WSW[NMeNle][NMeNle]RCGGGG-NHhexadecyl; thioether N-14) | 5.80 to 7.00 |
| CCCC[C@H]1C(=O)N(C)[C@@H](CCCC)C(=O)N[C@@H](CC(C)C)C(=O)N[C@H](C(=O)NCC(=O)N[C@@H](CC(=O)NCC[C@H](NC(=O)CCCCCCCCCCCCCCCCC(=O)O)C(=O)O)C(=O)O)CSCC(=O)N[C@@H](Cc2ccc(O)cc2)C(=O)N2CCCC[C@H]2C(=O)N[C@@H](CC(N)=O)C(=O)N2CCC[C@H]2C(=O)N[C@@H](CN)C(=O)N[C@@H](CC(C)C)C(=O)N2C[C@H](O)C[C@H]2C(=O)N[C@@H](Cc2c[nH]c3ccccc23)C(=O)N[C@@H](CCN)C(=O)N[C@@H](Cc2cn(CC(=O)O)c3ccccc23)C(=O)N1C [Example 13144] ({CH2CO}-Y[Pip]NP[Dap]L[Hyp]W[Dab][Trp(1-CH2COOH)][NMeNle][NMeNle]LCGD(X9)-OH; thioether N-14) | 7.00 to 8.00 |
| CCCC[C@H]1C(=O)N(C)[C@@H](CCCC)C(=O)N[C@@H](CC(C)C)C(=O)N[C@H](C(=O)NCC(=O)N[C@@H](CC(=O)O)C(=O)N[C@@H](CC(=O)NCCCOCCOCCOCCCNC(=O)C[C@H](NC(=O)CCCCCCCCCCCCCCCCC(=O)O)C(=O)O)C(=O)O)CSCC(=O)N[C@@H](Cc2ccc(O)cc2)C(=O)N(C)[C@@H](C)C(=O)N[C@@H](CC(N)=O)C(=O)N2CCC[C@@H]2C(=O)N[C@@H](CN)C(=O)N[C@@H](CC(C)C)C(=O)N2C[C@@H](O)C[C@@H]2C(=O)N[C@@H](Cc2c[nH]c3ccccc23)C(=O)N[C@@H](CCN)C(=O)N[C@@H](Cc2cn(CC(=O)O)c3ccccc23)C(=O)N1C [Example 11232] ({CH2CO}-Y[NMeA]N[dP][Dap]L[dHyp]W[Dab][Trp(1-CH2COOH)][NMeNle][NMeNle]LCGDD(X4)-OH; thioether N-14) | 7.00 to 8.00 |
| CCCC[C@H]1C(=O)N(C)[C@@H](CCCC)C(=O)N[C@@H](CC(C)C)C(=O)N[C@H](C(=O)NCCCCCCCCCCC(=O)N[C@@H](CCC(=O)O)C(=O)O)CSCC(=O)N[C@@H](Cc2ccc(O)cc2)C(=O)N(C)[C@@H](C)C(=O)N[C@@H](CC(N)=O)C(=O)N2CCC[C@H]2C(=O)N[C@@H](Cc2cnc[nH]2)C(=O)N[C@@H](CCC(=O)O)C(=O)N2C[C@H](O)C[C@H]2C(=O)N[C@@H](Cc2c[nH]c3ccccc23)C(=O)N[C@@H](CCN)C(=O)N[C@@H](Cc2c[nH]c3ccccc23)C(=O)N1C [Example 11130] ({CH2CO}-Y[NMeA]NPHE[Hyp]W[Dab]W[NMeNle][NMeNle]LC[Aun]E-OH; thioether N-14) | 7.00 to 8.00 |
| CCCC[C@H]1C(=O)N(C)[C@@H](CCCC)C(=O)N[C@@H](CC(C)C)C(=O)N[C@H](C(=O)NCC(=O)NCC(=O)N[C@@H](Cc2cn(CC[C@H](NC(=O)CCCCCCCCCCCCCCCCC(=O)O)C(=O)O)nn2)C(=O)O)CSCC(=O)N[C@@H](Cc2ccc(O)cc2)C(=O)N(C)[C@@H](C)C(=O)N[C@@H](CC(N)=O)C(=O)N2CCC[C@H]2C(=O)N[C@@H](CN)C(=O)N[C@@H](CC(C)C)C(=O)N2C[C@H](O)C[C@H]2C(=O)N[C@@H](Cc2c[nH]c3ccccc23)C(=O)N[C@@H](CCN)C(=O)N[C@@H](Cc2cn(CC(=O)O)c3ccccc23)C(=O)N1C [Example 13122] | 5.80 to 7.00 |
| CCCC[C@H]1C(=O)N(C)[C@@H](CCCC)C(=O)N[C@@H](CCC(=O)O)C(=O)N[C@H](C(=O)NCC(=O)N[C@@H](Cc2cn(CCOCCOCCOCCOC)nn2)C(=O)NCC(N)=O)CSCC(=O)N[C@@H](Cc2ccc(O)cc2)C(=O)N(C)[C@@H](C)C(=O)N[C@@H](CC(=O)O)C(=O)N2CCC[C@H]2C(=O)N[C@@H](Cc2c[nH]cn2)C(=O)N[C@@H](CCCCN)C(=O)N2C[C@H](O)C[C@H]2C(=O)N[C@@H](Cc2c[nH]c3ccccc23)C(=O)N[C@@H](CCCCN)C(=O)N[C@@H](Cc2c[nH]c3ccccc23)C(=O)N1C [Example 14063] | 7.00 to 8.00 |
| CCCC[C@H]1C(=O)N(C)[C@@H](CCCC)C(=O)N[C@@H](CC(C)C)C(=O)N[C@H](C(=O)NCC(=O)N[C@@H](CCC(=O)NCCCOCCOCCOCCCNC(=O)CC[C@H](NC(=O)CCCCCCCCCCCCCCCCC(=O)O)C(=O)O)C(=O)O)CSCC(=O)N[C@@H](Cc2ccc(O)cc2)C(=O)N(C)[C@@H](C)C(=O)N[C@@H](CC(N)=O)C(=O)N2CCC[C@H]2C(=O)N[C@@H](CN)C(=O)N[C@@H](CC(C)C)C(=O)N2C[C@H](O)C[C@@H]2C(=O)N[C@@H](Cc2c[nH]c3ccccc23)C(=O)N[C@@H](CCN)C(=O)N[C@@H](Cc2cn(CC(=O)O)c3ccccc23)C(=O)N1C [Example 11163] ({CH2CO}-Y[NMeA]NP[Dap]L[d(cisHyp)]W[Dab][Trp(1-CH2COOH)][NMeNle][NMeNle]LCGE(X6)-OH; thioether N-14) | 8.00 to 9.52 |
| CCCC[C@H]1C(=O)N(C)[C@@H](CCCC)C(=O)N[C@@H](CCCNC(=N)N)C(=O)N[C@H](C(=O)NCC(=O)NCC(=O)N[C@@H](CC(=O)O)C(=O)NCCCCCCCCCCC(=O)O)CSCC(=O)N[C@@H](Cc2ccc(O)cc2)C(=O)N(C)[C@@H](C)C(=O)N[C@@H](CC(=O)O)C(=O)N2CCC[C@H]2C(=O)N[C@@H](Cc2cnc[nH]2)C(=O)N[C@@H](CC(C)C)C(=O)N2C[C@H](O)C[C@H]2C(=O)N[C@@H](Cc2c[nH]c3ccccc23)C(=O)N[C@@H](CO)C(=O)N[C@@H](Cc2c[nH]c3ccccc23)C(=O)N1C [Example 11069] ({CH2CO}-Y[NMeA]DPHL[Hyp]WSW[NMeNle][NMeNle]RCGGD[Aun]-OH; thioether N-14) | 7.00 to 8.00 |

Now from value to compound:

| pIC50 | Compound |
| --- | --- |
| 8.00 to 9.52 | CCCC[C@H]1C(=O)N(C)[C@@H](CCCC)C(=O)N[C@@H](CC(C)C)C(=O)N[C@H](C(=O)NCC(=O)N[C@@H](Cc2cn(CCCNC(=O)CCCCCCCCCCCCCCCCC(=O)O)nn2)C(=O)O)CSCC(=O)N[C@@H](Cc2ccc(O)cc2)C(=O)N(C)[C@@H](C)C(=O)N[C@@H](CC(N)=O)C(=O)N2CCC[C@H]2C(=O)N[C@@H](CN)C(=O)N[C@@H](CC(C)C)C(=O)N2C[C@H](O)C[C@H]2C(=O)N[C@@H](Cc2c[nH]c3ccccc23)C(=O)N[C@@H](CCN)C(=O)N[C@@H](Cc2cn(CC(=O)O)c3ccccc23)C(=O)N1C [Example 14126] |
| 8.00 to 9.52 | CCCC[C@H]1C(=O)N2C[C@H](O)C[C@@H]2C(=O)N[C@@H](CC(=O)O)C(=O)N[C@@H](C(C)C)C(=O)N(C)[C@@H](Cc2ccccc2)C(=O)N[C@@H](Cc2ccc(O)cc2)C(=O)N2CCCC[C@@H]2C(=O)N[C@@H](Cc2c[nH]c3ccccc23)C(=O)N[C@@H](Cc2ccc(O)cc2)C(=O)N[C@@H](CC(C)C)C(=O)N[C@H](C(=O)NCC(=O)NCC(=O)NCC(=O)N[C@@H](CCCCN)C(N)=O)CSCC(=O)N[C@@H](Cc2cc(F)c(F)c(F)c2)C(=O)N(C)[C@@H](Cc2ccccc2)C(=O)N1C [Example 3623] ({CH2CO}-[Phe(3,4,5-F3)][NMeF][NMeNle][d(cisHyp)]DV[NMeF]Y[dPip]WYLCGGGK-NH2; thioether N-13) |
| 8.00 to 9.52 | CCCC[C@H]1C(=O)N(C)[C@@H](CCCC)C(=O)N[C@@H](CC(C)C)C(=O)N[C@H](C(=O)NCC(=O)N[C@@H](CCC(=O)NCCCOCCOCCOCCCNC(=O)CC[C@H](NC(=O)CCCCCCCCCCCCCCCCC(=O)O)C(=O)O)C(=O)O)CSCC(=O)N[C@@H](Cc2ccc(F)cc2)C(=O)N2CCCC[C@H]2C(=O)N[C@@H](CC(=O)O)C(=O)N2CCC[C@H]2C(=O)N[C@@H](CN)C(=O)N[C@@H](CCC(=O)O)C(=O)N2C[C@H](O)C[C@H]2C(=O)N[C@@H](Cc2c[nH]c3ccccc23)C(=O)N[C@@H](CCN)C(=O)N[C@@H](Cc2cn(CC(=O)O)c3ccccc23)C(=O)N1C [Example 11263] ({CH2CO}-[Phe(4-F)][Pip]DP[Dap]E[Hyp]W[Dab][Trp(1-CH2COOH)][NMeNle][NMeNle]LCGE(X6)-OH; thioether N-14) |
| 8.00 to 9.52 | CCCC[C@H]1C(=O)N(C)[C@@H](CCCC)C(=O)N[C@@H](CC(C)C)C(=O)N[C@H](C(=O)NCC(=O)N[C@@H](CC(=O)O)C(=O)NCCCOCCOCCOCCCNC(=O)CC[C@H](NC(=O)CCCCCCCCCCCCC(=O)O)C(=O)O)CSCC(=O)N[C@@H](Cc2ccc(O)cc2)C(=O)N(C)[C@@H](C)C(=O)N[C@@H](CC(N)=O)C(=O)N2CCC[C@H]2C(=O)N[C@@H](CN)C(=O)N[C@@H](CC(C)C)C(=O)N2C[C@H](O)C[C@H]2C(=O)N[C@@H](Cc2c[nH]c3ccccc23)C(=O)N[C@@H](CCN)C(=O)N[C@@H](Cc2cn(CC(=O)O)c3ccccc23)C(=O)N1C [Example 11254] ({CH2CO}-Y[NMeA]NP[Dap]L[Hyp]W[Dab][Trp(1-CH2COOH)][NMeNle][NMeNle]LCGD-X11; thioether N-14) |
